Columns and labels:
KDM5A/B = experiment: In vitro cell-based assay: immuno-blot quantification of tri-methyl H3K4 in ZR-75-1 breast cancer cells; details: 72 hours, tri-methyl H3K4 level relative to GAPDH, percent of DMSO, read-out: Cellular IC50
Method in brief: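 ZR-75-1 breast cancer cells treated 72 h with 11-point compound dilutions (1250 μM to 10 nM). H3K4me3 quantified by infrared immunoblot densitometry, normalized to GAPDH and expressed as percent of DMSO control; relative IC50 from curve fit.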

Jarid1A = molecular target: T1, Jarid1A (Homo sapiens, UniProt P29375); experiment: Jarid1A in vitro enzyme inhibition assay (TR-FRET); assay type: biochemical
T1 construct: purchased BPS Bioscience 50110
T1 sequence (P29375 1-1090): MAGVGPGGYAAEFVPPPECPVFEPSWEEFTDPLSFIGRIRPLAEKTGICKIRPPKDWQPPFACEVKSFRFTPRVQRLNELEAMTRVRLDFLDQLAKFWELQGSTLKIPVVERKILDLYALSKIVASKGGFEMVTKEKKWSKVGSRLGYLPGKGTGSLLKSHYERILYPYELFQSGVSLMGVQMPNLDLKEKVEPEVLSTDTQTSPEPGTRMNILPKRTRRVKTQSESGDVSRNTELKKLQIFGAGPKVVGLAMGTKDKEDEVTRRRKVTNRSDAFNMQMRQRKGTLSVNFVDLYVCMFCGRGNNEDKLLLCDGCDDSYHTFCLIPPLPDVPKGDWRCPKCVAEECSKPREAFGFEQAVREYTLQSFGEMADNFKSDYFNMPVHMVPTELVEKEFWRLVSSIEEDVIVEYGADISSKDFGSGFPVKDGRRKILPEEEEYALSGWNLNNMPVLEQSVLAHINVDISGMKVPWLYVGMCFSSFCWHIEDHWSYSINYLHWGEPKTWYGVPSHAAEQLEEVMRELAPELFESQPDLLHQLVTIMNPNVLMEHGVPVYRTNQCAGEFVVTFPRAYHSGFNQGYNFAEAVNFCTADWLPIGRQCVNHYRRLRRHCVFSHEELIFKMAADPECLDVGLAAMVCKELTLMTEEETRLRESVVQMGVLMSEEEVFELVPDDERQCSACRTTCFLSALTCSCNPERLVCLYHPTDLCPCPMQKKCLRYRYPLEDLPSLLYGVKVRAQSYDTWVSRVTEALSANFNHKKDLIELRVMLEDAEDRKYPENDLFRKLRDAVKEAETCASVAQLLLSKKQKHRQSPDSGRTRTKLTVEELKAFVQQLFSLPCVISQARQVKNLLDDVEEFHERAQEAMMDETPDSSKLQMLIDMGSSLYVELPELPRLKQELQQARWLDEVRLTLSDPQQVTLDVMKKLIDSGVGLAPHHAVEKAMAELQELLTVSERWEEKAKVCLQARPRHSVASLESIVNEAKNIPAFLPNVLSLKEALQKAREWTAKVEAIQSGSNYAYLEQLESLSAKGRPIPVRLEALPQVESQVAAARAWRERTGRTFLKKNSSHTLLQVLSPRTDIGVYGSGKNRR
Method in brief: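 Demethylation of 300 nM biotin-H3K4me3 peptide by 1 nM baculovirus-expressed Jarid1A (aa 1–1090) with 2 μM α-ketoglutarate, Fe(II) and ascorbate, pH 7.3, 30 min at room temperature. Stopped with EDTA; H3K4me1-2 product detected by TR-FRET (Eu anti-H3K4me1-2/streptavidin-APC). IC50 fitted from 665/615 ratio over 11-point dilutions.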

Row | IC50 (KDM5A/B) [nM] | IC50 (Jarid1A) [nM] | SMILES
1 | 1000 to 10000 | ≤ 100 | Oc1nc(Oc2cnn([C@@H]3CCCN(c4ccc(F)cc4)C3)c2)nc2cnccc12 [Example 159, 2-({1-[(3R)-1-(4-fluorophenyl)piperidin-3-yl]-1H-pyrazol-4-yl}oxy)pyrido[3,4-d]pyrimidin-4-ol]
2 | 100 to 1000 | ≤ 100 | CCS(=O)(=O)N1CCC[C@H](n2cc(Oc3nc(O)c4ccncc4n3)cn2)C1 [Example 161, 2-({1-[(3S)-1-(ethanesulfonyl)piperidin-3-yl]-1H-pyrazol-4-yl}oxy)pyrido[3,4-d]pyrimidin-4-ol]
3 | 100 to 1000 | ≤ 100 | O=S(=O)(C1CC1)N1CCC[C@H](n2cc(Oc3nc(O)c4ccncc4n3)cn2)C1 [Example 162, 2-({1-[(3S)-1-(cyclopropanesulfonyl)piperidin-3-yl]-1H-pyrazol-4-yl}oxy)pyrido[3,4-d]pyrimidin-4-ol]
4 | 100 to 1000 | ≤ 100 | O=S(=O)(c1ccccc1)N1CCC[C@H](n2cc(Oc3nc(O)c4ccncc4n3)cn2)C1 [Example 163, 2-({1-[(3S)-1-(benzenesulfonyl)piperidin-3-yl]-1H-pyrazol-4-yl}oxy)pyrido[3,4-d]pyrimidin-4-ol]
5 | 1000 to 10000 | ≤ 100 | CC(=O)N1CCC[C@H](n2cc(Oc3nc(O)c4ccncc4n3)cn2)C1 [Example 164, 1-[(3S)-3-[4-({4-hydroxypyrido[3,4-d]pyrimidin-2-yl}oxy)-1H-pyrazol-1-yl]piperidin-1-yl]ethan-1-one]
6 | 1000 to 10000 | ≤ 100 | O=C(C1CC1)N1CCC[C@H](n2cc(Oc3nc(O)c4ccncc4n3)cn2)C1 [Example 165, 2-({1-[(3S)-1-cyclopropanecarbonylpiperidin-3-yl]-1H-pyrazol-4-yl}oxy)pyrido[3,4-d]pyrimidin-4-ol]
7 | > 10000 | ≤ 100 | N#CCC(=O)N1CCC[C@H](n2cc(Oc3nc(O)c4ccncc4n3)cn2)C1 [Example 166, 3-[(3S)-3-[4-({4-hydroxypyrido[3,4-d]pyrimidin-2-yl}oxy)-1H-pyrazol-1-yl]piperidin-1-yl]-3-oxopropanenitrile]
8 | 1000 to 10000 | ≤ 100 | O=C(c1ccccc1)N1CCC[C@H](n2cc(Oc3nc(O)c4ccncc4n3)cn2)C1 [Example 167, 2-({1-[(3S)-1-benzoylpiperidin-3-yl]-1H-pyrazol-4-yl}oxy)pyrido[3,4-d]pyrimidin-4-ol]
9 | 1000 to 10000 | ≤ 100 | Oc1nc(Oc2cnn([C@H]3CCCN(Cc4ccccc4)C3)c2)nc2cnccc12 [Example 168, 2-({1-[(3S)-1-benzylpiperidin-3-yl]-1H-pyrazol-4-yl}oxy)pyrido[3,4-d]pyrimidin-4-ol]

From patent US10526327B2, “Histone demethylase inhibitors” (CELGENE QUANTICEL RESEARCH, INC., priority 2013, dated 2020)
